Molecular target: T1, PoABF62 (Penicillium oxalicum, UniProt A0A2R4KZP3)
T1 construct: heterologously produced (fungal host), purified, supplied by Novozymes
Assay: HPAEC-PAD of hydrolysis products
Assay type: biochemical
Details: 10 mM ammonium acetate pH 5.0, 40 °C, 24 h, 100 μg/mL substrate

T1 sequence (A0A2R4KZP3 31-331): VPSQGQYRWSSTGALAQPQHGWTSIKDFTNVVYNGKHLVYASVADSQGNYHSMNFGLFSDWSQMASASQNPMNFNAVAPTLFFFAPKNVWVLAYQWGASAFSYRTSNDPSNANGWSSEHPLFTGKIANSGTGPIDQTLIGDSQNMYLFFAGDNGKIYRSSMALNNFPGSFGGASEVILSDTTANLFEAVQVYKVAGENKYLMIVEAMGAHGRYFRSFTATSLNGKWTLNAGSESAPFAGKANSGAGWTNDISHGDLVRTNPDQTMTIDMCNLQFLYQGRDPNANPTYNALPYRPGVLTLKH

Structure (SMILES) | HPAEC-PAD of hydrolysis products | HPAEC-PAD of hydrolysis products (XA2XX/XA3XX mixture)
OC[C@@H]1O[C@@H](O[C@H]2[C@H](O[C@@H]3CO[C@@H](O[C@@H]4COC(O)[C@H](O)[C@H]4O)[C@H](O)[C@H]3O)OC[C@@H](O)[C@@H]2O)[C@H](O)[C@H]1O (stereo partly drawn) [A2XX, 2-α-L-arabinofuranosyl-xylotriose] | PoABF62 and MgABF51 were highly active on all monosubstituted AXOS | 
OC[C@@H]1O[C@@H](O[C@@H]2[C@@H](O)[C@H](O[C@@H]3CO[C@@H](O[C@@H]4COC(O)[C@H](O)[C@H]4O)[C@H](O)[C@H]3O)OC[C@H]2O[C@@H]2OC[C@@H](O)[C@H](O)[C@H]2O)[C@H](O)[C@H]1O (stereo partly drawn) [XA3XX, 3-α-L-arabinofuranosyl-xylotetraose] |  | PoABF62 and MgABF51 were highly active on all monosubstituted AXOS

Source: paper PMC9693073, “Two Subgroups within the GH43_36 α-L-Arabinofuranosidase Subfamily Hydrolyze Arabinosyl from Either Mono-or Disubstituted Xylosyl Units in Wheat Arabinoxylan” (International Journal of Molecular Sciences, 2022)
